Test results as given in patent US4925846A, “2-thiazolyl-imidazo[1,2,-a]pyrimidines” (Roussel Uclaf, priority 1986, dated 1990).

Tests used:
benzodiazepine receptor = experiment: Benzodiazepine receptor binding (FRB), [3H]-flunitrazepam displacement; settings: 0.6 nM [3H] flunitrazepam, rat forebrain membrane preparations; read-out: FRB (IC50, inhibition of specific binding of [3H]-flunitrazepam)
Method: The compounds of formula I are agents which interact with benzodiazepine receptors in the brain, and are useful as minor tranquillizers and for the treatment of obesity or cognitive impairment. Screening for benzodiazepine receptor binding (FRB) was carried out by the method described in published British Patent No. 2,128,989. The values given in Table II are expressed in terms of IC50 (nM).
The affinity of the compounds for the benzodiazepine receptor was assessed using the radioligand [^3 H]-flunitrazepam by modification of the original radioceptor binding method of SQUIRES et al [Nature, (1977), Vol. 266, p. 732].

DBA2 mice = experiment: Potentiation of threshold seizures induced by audiogenic stimulation in DBA2 mice; type: in vivo; settings: Mus musculus, ip, 0.5 h, i.p., 30 mins pretest, read-out: ED50, potentiation of audiogenic threshold seizures to full tonic seizures
Method: (§1) Benzodiazepine inverse agonists properties are indicated by the following tests.
(a) Potentiation of threshold seizures induced by audiogenic stimulation in DBA2 mice [Jensen et al--Life Sciences 33, 393-9 (1983)], DBA2 mice are subjected to audio stimulation. The threshold seizure characteristics (myoclonus, running) are potentiated by active compounds to full tonic seizures and ED50 is calculated.

Wistar rats = experiment: Induction of suprahyoid muscle twitching in urethane anaesthetised Wistar rats; type: in vivo; settings: Rattus norvegicus, ip, urethane anaesthetised Wistar rats pretreated with nialamide; read-out: MED, increase of amplitude and/or rate of suprahyoid muscle twitch
Excerpt: as §1
(c) […] of suprahyoid muscle twitching in urethane anaesthetised Wistar rats [James & Gardner--Europ. J. Pharmacol. 113, 223-8 (1985)]. Wistar rats pretreated with nialamide are anaesthetised with urethane and the suprahyoid muscles exposed. These muscles spontaneously twitch and active compounds increase the amplitude and/or rate of twitch.

CD1 mice = experiment: Potentiation of seizures induced by subcutaneous injection of leptazol to CD1 mice; type: in vivo; settings: Mus musculus, ip, 0.5 h, i.p., 30 mins pretest, read-out: ED50, potentiation of leptazol-induced tonic seizures
Method: as §1
(b) Potentiation of seizures induced by subcutaneous injection of leptazol to CD1 mice.
A dose of leptazol is selected to give 10 to 20% tonic seizures in untreated CD1 mice. Active compounds increase the percentage of tonic seizures and the ED50 is calculated by the method of Lichfield and Wilcoxon (J. Pharmacol Exp. Ther. (1949) 96, 99).

| SMILES | IC50 (benzodiazepine receptor) [nM] | other results |
| --- | --- | --- |
| CCc1c(OC)nc2nc(-c3nc(C)cs3)cn2c1C [Example 1, 6-Ethyl-7-methoxy-5-methyl-2-(4-methylthiazol-2-yl)-imidazo[1,2-a]pyrimidine] | 112 | ED50 (DBA2 mice): 3 mg/kg; minimal effective dose (Wistar rats): 10 mg/kg; ED50 (CD1 mice): 50 mg/kg |
| CCc1csc(-c2cn3c(C)c(CC)c(OC)nc3n2)n1 [Example 2, 6-Ethyl-2-(4-ethylthiazol-2-yl)-7-methoxy-5-methylimidazo[1,2-a]pyrimidine] | 220 | – |
| CCc1c(OC)nc2nc(-c3nc(C)c(C)s3)cn2c1C [Example 3, 2-(4,5-Dimethylthiazol-2-yl)-6-ethyl-7-methoxy-5-methylimidazo[1,2-a]pyrimidine] | 2500 | – |
| CCOC(=O)c1csc(-c2cn3c(C)c(CC)c(OC)nc3n2)n1 [Example 4, Ethyl 2-(6-ethyl-7-methoxy-5-methylimidazo[1,2-a]pyrimidin-2-yl)-thiazole-4-carboxylate] | 2800 | – |
| CCc1c(SC)nc2nc(-c3nc(C)cs3)cn2c1C [Example 5, 6-Ethyl-5-methyl-2-(4-methylthiazol-2-yl)-7-methylthioimidazo[1,2-a]pyrimidine] | 80 | – |
| CCc1c(OC)nc2nc(-c3nc(C(F)(F)F)cs3)cn2c1C [Example 6, 6-Ethyl-7-methoxy-5-methyl-2-(4-trifluoromethylthiazol-2-yl)-imidazol[1,2-a]pyrimidine] | 2000 | – |
| COc1nc2nc(-c3nc(C)cs3)cn2c2c1CCCC2 [Example 7, 5-Methoxy-2-(4-methylthiazol-2-yl)-6,7,8,9-tetrahydroimidazo[1,2-a]quinazoline] | 22 | – |
| C=CCc1c(OC)nc2nc(-c3nc(C)cs3)cn2c1C [Example 8, 6-Allyl-7-methoxy-5-methyl-2-(4-methylthiazol-2-yl)imidazo[1,2-a]pyrimidine] | 100 | – |
| CCCc1c(OC)nc2nc(-c3nc(C)cs3)cn2c1C [Example 9, 7-Methoxy-5-methyl-2-(4-methylthiazol-2-yl)-6-propylimidazo[1,2-a]pyrimidine] | 100 | – |
| CCc1c(OC)nc2nc(-c3nccs3)cn2c1C [Example 10, 6-Ethyl-7-methoxy-5-methyl-2-(thiazol-2-yl)imidazo[1,2-a]pyrimidine] | 200 | – |
